Ends that are not written are not given here.
Assays:
[1] = target: T1, ADGRF1 (Homo sapiens, UniProt Q5T601, V732A); test: BRET assay using TRUPATH biosensors, Gi activation of ADGRF1; type: cell-based; settings: ADGRF1 V732^ECL2A, n = 3
T1 construct: Flag (N); expressed in transfected cells; host or cells: HEK293F
Summary of the method: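 HEK293F cells transiently co-transfected with wild-type or mutant receptor, Gα-RLuc8 (GαsS for Gs, Gαi1 for Gi), Gβ3 and Gγ9-GFP2 at 2:1:1:1. After 30 min at 37 °C and coelenterazine 400a, cells stimulated with synthetic stalk peptide. BRET = GFP2/RLuc8 emission, last of five readings.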

[2] = target: T2, ADGRD1 (Homo sapiens, UniProt Q6QNK2); test: BRET assay using TRUPATH biosensors, G protein activation of ADGRD1; type: cell-based; settings: Gs, ADGRD1 WT, n = 3
T2 construct: Flag (N); expressed in transfected cells; host or cells: HEK293F
T2 sequence (Q6QNK2 26-874): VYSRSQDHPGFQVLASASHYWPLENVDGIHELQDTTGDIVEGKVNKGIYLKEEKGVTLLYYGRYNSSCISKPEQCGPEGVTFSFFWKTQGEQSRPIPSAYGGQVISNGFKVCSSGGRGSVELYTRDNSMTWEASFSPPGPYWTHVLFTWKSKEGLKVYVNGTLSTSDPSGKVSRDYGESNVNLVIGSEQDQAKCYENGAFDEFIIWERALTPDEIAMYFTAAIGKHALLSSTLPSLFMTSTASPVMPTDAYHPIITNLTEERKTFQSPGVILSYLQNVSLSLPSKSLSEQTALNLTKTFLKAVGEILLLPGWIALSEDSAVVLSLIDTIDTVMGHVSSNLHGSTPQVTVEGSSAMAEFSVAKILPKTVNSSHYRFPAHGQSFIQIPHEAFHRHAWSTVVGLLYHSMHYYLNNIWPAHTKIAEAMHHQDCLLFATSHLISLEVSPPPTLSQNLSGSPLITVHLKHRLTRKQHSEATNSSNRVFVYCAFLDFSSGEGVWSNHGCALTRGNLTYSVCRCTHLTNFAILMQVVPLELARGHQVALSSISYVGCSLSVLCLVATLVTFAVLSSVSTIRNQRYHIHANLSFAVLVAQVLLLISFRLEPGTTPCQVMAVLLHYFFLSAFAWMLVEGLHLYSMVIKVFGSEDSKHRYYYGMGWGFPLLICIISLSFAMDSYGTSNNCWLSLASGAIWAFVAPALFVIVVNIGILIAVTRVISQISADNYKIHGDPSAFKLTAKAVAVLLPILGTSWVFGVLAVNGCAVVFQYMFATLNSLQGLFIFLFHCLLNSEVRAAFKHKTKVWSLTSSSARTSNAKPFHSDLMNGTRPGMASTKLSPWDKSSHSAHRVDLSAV
Protocol: To study the synthetic stalk peptide-induced G protein activation of ADGRD1 and ADGRF1, a BRET assay using TRUPATH biosensors was conducted to measure the proximal interaction between RLuc8 fused to the Gα subunit and GFP2 fused to the Gγ subunit. The TRUPATH suite of biosensors was obtained from Addgene (Addgene kit no. 1000000163) as a gift from B. Roth, including GαsS-RLuc8, Gαi1-RLuc8, Gβ3 and Gγ9-GFP2 as previously described.
The wild-type or mutant ADGRD1 and ADGRF1 were transiently co-transfected with plasmids encoding Gα-RLuc8 (GαsS-RLuc8 for Gs activation assay; Gαi1-RLuc8 for Gi activation assay), Gβ3 and Gγ9-GFP2 at a ratio of 2:1:1:1 (receptor plasmid, 800 ng; G protein subunit plasmids, 400 ng for each) in 2 ml HEK293F cells at a density of 1.2 × 10^6 cells per ml. Cell cultivation and receptor surface expression measurement were performed as described above. The cells were plated into 96-well white plates (40,000 cells per well) in 60 μl of assay buffer and incubated at 37 °C for 30 min. Then 10 μl of freshly prepared 50 μM coelenterazine 400a (Nanolight Technologies) was added. […] The cells were stimulated with 30 μl of synthetic stalk peptide at different concentrations and the BRET signals were monitored continuously five times. The last measurements were used in data analysis. The BRET ratios were calculated as the ratio of the GFP2 emission to RLuc8 emission.

T1 sequence (Q5T601 20-910 V732A): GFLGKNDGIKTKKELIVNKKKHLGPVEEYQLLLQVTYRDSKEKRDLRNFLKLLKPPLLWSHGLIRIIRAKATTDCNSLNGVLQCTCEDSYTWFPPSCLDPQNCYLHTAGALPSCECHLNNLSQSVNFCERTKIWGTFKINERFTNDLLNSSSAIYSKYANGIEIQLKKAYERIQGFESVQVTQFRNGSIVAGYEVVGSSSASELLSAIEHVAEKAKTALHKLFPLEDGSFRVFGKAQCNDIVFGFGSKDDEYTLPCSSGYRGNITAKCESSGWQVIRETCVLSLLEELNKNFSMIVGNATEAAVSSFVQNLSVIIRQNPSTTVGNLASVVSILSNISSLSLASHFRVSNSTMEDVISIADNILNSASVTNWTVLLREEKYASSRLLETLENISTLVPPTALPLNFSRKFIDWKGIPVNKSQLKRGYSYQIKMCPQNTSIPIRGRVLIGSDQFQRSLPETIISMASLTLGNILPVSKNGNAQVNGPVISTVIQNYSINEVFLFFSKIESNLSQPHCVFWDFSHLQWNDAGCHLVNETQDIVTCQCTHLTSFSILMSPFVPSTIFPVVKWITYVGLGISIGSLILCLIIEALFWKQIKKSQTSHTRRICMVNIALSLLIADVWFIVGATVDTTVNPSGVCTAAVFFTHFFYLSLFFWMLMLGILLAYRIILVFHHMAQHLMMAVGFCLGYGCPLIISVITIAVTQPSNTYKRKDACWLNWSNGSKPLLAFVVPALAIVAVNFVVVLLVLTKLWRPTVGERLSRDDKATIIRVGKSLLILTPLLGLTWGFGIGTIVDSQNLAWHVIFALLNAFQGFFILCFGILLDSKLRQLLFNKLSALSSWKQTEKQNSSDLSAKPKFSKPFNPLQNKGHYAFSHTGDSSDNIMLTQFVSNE

Sequence: TSFSILMSPFVP [pF1]
- EC50 [1]: 1.95 µM
- Emax (mean ± s.e.m.) [1]: 73 ± 13 % of WT
- Emax (mean ± s.e.m.) [2]: 67 ± 12 % of WT
- EC50 ([2]; read-out: pEC50 (mean ± s.e.m.) (converted)): 1.26 µM

— publication PMC9046087, “Structural basis of tethered agonism of the adhesion GPCRs ADGRD1 and ADGRF1” (Nature, 2022)
